Laboratory results from patent US8343458B2, “Probes for in vivo targeting of active cysteine proteases” (The Board of Trustees of the Leland Stanford Junior …, priority 2008, dated 2013).

System: thymus tissue undergoing apoptosis
Assay: Tissue uptake in dexamethasone apoptosis mouse model
Type: in vivo
Conditions: dexamethasone-treated mice, 125I-labeled probe, radioactivity over time
Method: Graphs are for thymus, blood, muscle and liver.
Distribution studies were done in mice that were treated with dexamethazone (IP injection) to induce apoptosis in the thymus. This animal model is further described, e.g., in Casteels et al. “Sex Difference in Resistance to Dexamethasone-Induced Apoptosis in NOD Mice,” Diabetes, 47:1033-1037, 1998. AB53 was labeled with ^125I at the nitrophenol capping group.
Referring now to FIG. 6, data for the uptake of the probe in different tissues was obtained. Presented there are four graphs, one for thymus (FIG. 6A), one for blood (FIG. 6B) one for muscle (FIG. 6C) and one for liver (FIG. 6D), showing data from the in vivo uptake studies with ^125I-AB53. Graphs plot radioactivity as percent of initial dose/g of tissue from ^125I measured in different organs over time.

SMILES: Cc1cccc(C)c1C(=O)OCC(=O)[C@H](CC(=O)O)NC(=O)C1CCCN1C(=O)[C@H](Cc1ccc(-c2ccccc2)cc1)NC(=O)Cc1ccc([N+](=O)[O-])c(O)c1 (stereo partly shown) [AB53]
- Probe uptake in thymus: accumulates specifically in the thymus tissue that is undergoing apoptosis
